Among the data in patent US8415351B2 (priority 2007, dated 2013) are IC50 and EC50 values, retold here.

Like-named read-outs stand apart in the source and are kept apart here. A value given as a limit tells only on which side of the number the result lay.

Broadly, the IC50 is the midpoint of a concentration-inhibition curve. For orientation: EC50 means the concentration that produces a half-maximal response.

Test [1] addresses T1, HCV polymerase 1A (Δ21 NS5B, H77) (Hepatitis C virus genotype 1a, UniProt P27958).
T1 construct: 20 to 50 nM Δ21 NS5B
Description: biochemical. Particulars: IC50 1a. The method, boiled down: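 Incorporation of 1 μM ^3H-UTP, with 20 μM each of CTP and ATP on 5 nM template RNA, ran 2–4 h at room temperature. Spermine-precipitated product was filtered and scintillation-counted. IC50 came from tight-binding non-linear regression of cpm against inhibitor concentration.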

The target in test [2] is T2, HCV polymerase 1B (Δ21 NS5B, BK) (Hepatitis C virus genotype 1b, UniProt P26663).
T2 construct: 20 to 50 nM Δ21 NS5B
Description: biochemical. The method, boiled down: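 Δ21 NS5B (genotype 1b, BK […]) preincubated 15 min RT with inhibitor, 2 mM MnCl2, pH 7.4, 60–125 μM GTP; started with 20 μM CTP/ATP, 1 μM 3H-UTP, 5 nM template RNA, run 2–4 h RT. Spermine-precipitated RNA filter-captured, scintillation counted; IC50 from tight-binding (Morrison) fit.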

The test system of test [3] is genotype 1a-H77 subgenomic replicon cell line. Description: microbe, parasite or virus in culture. The format is cell-based, HCV. As to conditions: read-out: EC50 1a.
The test system of test [4] is genotype 1b-Con1 subgenomic replicon cell line. Put plainly: microbe, parasite or virus in culture. The test is classed as cell-based, HCV. Particulars: read-out: EC50 1b.

T1 sequence (P27958 2421-2990, stated change not applied): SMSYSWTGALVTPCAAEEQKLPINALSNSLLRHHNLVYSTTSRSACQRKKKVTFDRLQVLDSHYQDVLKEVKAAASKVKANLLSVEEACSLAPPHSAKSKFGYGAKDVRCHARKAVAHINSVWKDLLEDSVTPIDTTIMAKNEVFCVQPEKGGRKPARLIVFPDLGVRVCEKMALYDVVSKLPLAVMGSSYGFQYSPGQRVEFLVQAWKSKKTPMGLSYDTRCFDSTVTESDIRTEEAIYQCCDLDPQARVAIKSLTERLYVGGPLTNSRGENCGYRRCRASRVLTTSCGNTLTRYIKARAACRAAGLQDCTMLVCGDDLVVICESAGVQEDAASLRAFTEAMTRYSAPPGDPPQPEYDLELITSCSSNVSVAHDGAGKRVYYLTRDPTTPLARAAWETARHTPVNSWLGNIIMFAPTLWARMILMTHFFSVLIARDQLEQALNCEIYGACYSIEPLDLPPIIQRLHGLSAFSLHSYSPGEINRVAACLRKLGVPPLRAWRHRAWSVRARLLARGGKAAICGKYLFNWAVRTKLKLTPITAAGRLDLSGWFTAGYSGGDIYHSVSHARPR
T2 sequence (P26663 2420-2989, stated change not applied): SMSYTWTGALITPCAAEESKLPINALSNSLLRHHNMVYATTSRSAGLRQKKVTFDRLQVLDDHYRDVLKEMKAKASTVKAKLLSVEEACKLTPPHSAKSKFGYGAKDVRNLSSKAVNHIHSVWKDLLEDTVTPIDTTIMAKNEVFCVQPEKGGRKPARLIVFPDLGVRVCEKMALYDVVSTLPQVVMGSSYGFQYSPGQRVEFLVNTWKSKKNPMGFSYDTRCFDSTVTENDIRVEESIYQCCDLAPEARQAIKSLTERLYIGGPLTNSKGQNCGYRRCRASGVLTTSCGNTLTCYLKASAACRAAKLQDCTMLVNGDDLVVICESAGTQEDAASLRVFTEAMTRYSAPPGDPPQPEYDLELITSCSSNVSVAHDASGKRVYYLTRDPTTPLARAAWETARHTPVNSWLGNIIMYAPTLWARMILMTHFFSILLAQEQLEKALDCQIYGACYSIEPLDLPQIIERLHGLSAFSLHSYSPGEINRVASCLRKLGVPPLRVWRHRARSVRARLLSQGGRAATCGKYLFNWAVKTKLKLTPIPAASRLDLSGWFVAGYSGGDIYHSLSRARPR

On to `COc1c(-c2ccc3c(c2)CCC3NNS(C)(=O)=O)cc(-n2ccc(=O)[nH]c2=O)cc1C(C)(C)C` (centres unmarked) [IB-L0-2.31, N′-(5-(3-tert-butyl-5-(2,4-dioxo-3,4-dihydropyrimidin-1(2H)-yl)-2-methoxyphenyl)-2,3-dihydro-1H-inden-1-yl)methanesulfonohydrazide], for which the half-inhibitory concentration (IC50) in test [1] and in test [2] was 10 to 100 nM in each case. Also, the values for the EC50 in test [3] (Hepatitis C virus) and in test [4] (Hepatitis C virus) were 100 to 1000 nM and 10 to 100 nM, respectively.

Consider `COc1c(-c2ccc3c(c2)CCC3(C)CNS(C)(=O)=O)cc(-n2ccc(=O)[nH]c2=O)cc1C(C)(C)C` (centres unmarked) [IB-L0-2.25, N-((5-(3-tert-butyl-5-(2,4-dioxo-3,4-dihydropyrimidin-1(2H)-yl)-2-methoxyphenyl)-1-methyl-2,3-dihydro-1H-inden-1-yl)methyl)methanesulfonamide], for which the 50% inhibitory concentration (IC50) in test [1] and in test [2] was 10 to 100 nM in each case. Further, the concentration for a half-maximal effect (EC50) lay within 100 to 1000 nM in test [3] (Hepatitis C virus) and 10 to 100 nM in test [4] (Hepatitis C virus).

For `COc1c(N(C)C(=O)c2ccc(NS(C)(=O)=O)cc2)cc(N2CCC(=O)NC2=O)cc1C(C)(C)C` [IA-L4-1.7, N-(3-tert-butyl-5-(2,4-dioxotetrahydropyrimidin-1(2H)-yl)-2-methoxyphenyl)-N-methyl-4-(methylsulfonamido)benzamide], the values for the IC50 in test [1] and in test [2] were 100 to 1000 nM and over 1000 nM, respectively. Besides, the EC50 in test [3] (Hepatitis C virus) and in test [4] (Hepatitis C virus) was over 1000 nM each time.

Turning to `COc1c(-c2ccoc2)cc(-n2ccc(=O)[nH]c2=O)cc1-c1ccc2c(c1)CC=C2CNS(C)(=O)=O` [IB-L0-2.67, N-((6-(5-(2,4-dioxo-3,4-dihydropyrimidin-1(2H)-yl)-3-(furan-3-yl)-2-methoxyphenyl)-1H-inden-3-yl)methyl)methanesulfonamide], the IC50 in test [1] and in test [2] was 10 to 100 nM each time. Further, the EC50 in test [3] (Hepatitis C virus) is 100 to 1000 nM; in test [4] (Hepatitis C virus), 10 to 100 nM.

In the case of `COc1c(C#Cc2ccc(NS(C)(=O)=O)cc2)cc(N2CCC(=O)NC2=O)cc1C(C)(C)C` [IA-L2-1.8, N-(4-((3-tert-butyl-5-(2,4-dioxotetrahydropyrimidin-1(2H)-yl)-2-methoxyphenyl)ethynyl)-phenyl)methanesulfonamide], the IC50 in test [1] and in test [2] was under 10 nM throughout. In addition, the 50% effective concentration (EC50) in test [3] (Hepatitis C virus) is 10 to 100 nM; in test [4] (Hepatitis C virus) it was under 10 nM.

Regarding `CN(C(=O)c1cc(N2CCC(=O)NC2=O)cc(C(C)(C)C)c1O)c1ccc(NS(C)(=O)=O)cc1` [IA-L3-1.2, 3-tert-butyl-5-(2,4-dioxotetrahydropyrimidin-1(2H)-yl)-2-hydroxy-N-methyl-N-(4-(methyl-sulfonamido)phenyl)benzamide], the IC50 in test [1] is over 1000 nM; in test [2], 10 to 100 nM. The concentration for a half-maximal effect (EC50) in test [3] (Hepatitis C virus) and in test [4] (Hepatitis C virus) was over 1000 nM each time.

Regarding `COc1c(C(=O)Nc2cc(CN(C)S(C)(=O)=O)cs2)cc(N2CCC(=O)NC2=O)cc1C(C)(C)C` [IA-L3-1.97, 3-tert-butyl-5-(2,4-dioxotetrahydropyrimidin-1(2H)-yl)-2-methoxy-N-(4-((N-methylmethylsulfonamido)methyl)thiophen-2-yl)benzamide], the half-maximal inhibitory concentration (IC50) in test [1] and in test [2] was over 1000 nM each time. The concentration for a half-maximal effect (EC50) in test [3] (Hepatitis C virus) and in test [4] (Hepatitis C virus) was over 1000 nM in each case.

For the compound `COc1cc(NS(C)(=O)=O)ccc1C#Cc1cc(N2CCC(=O)NC2=O)cc(C(C)(C)C)c1OC` [IA-L2-1.16, N-(4-((3-tert-butyl-5-(2,4-dioxotetrahydropyrimidin-1(2H)-yl)-2-methoxyphenyl)ethynyl)-3-methoxyphenyl)methanesulfonamide], the values for the half-maximal inhibitory concentration (IC50) in test [1] and in test [2] were under 10 nM and 10 to 100 nM, respectively. Moreover, the EC50 in test [3] (Hepatitis C virus) was 10 to 100 nM; in test [4] (Hepatitis C virus), under 10 nM.

Take `COc1c(C(=O)Nc2ccc(N(C)S(C)(=O)=O)cc2)cc(N2CCC(=O)NC2=O)cc1C(C)(C)C` [IA-L3-1.62, 3-tert-butyl-5-(2,4-dioxotetrahydropyrimidin-1(2H)-yl)-2-methoxy-N-(4-(N-methylmethylsulfonamido)phenyl)benzamide]: the IC50 in test [1] and in test [2] was 100 to 1000 nM in each case. For the same compound, the 50% effective concentration (EC50) in test [3] (Hepatitis C virus) is over 1000 nM; in test [4] (Hepatitis C virus) it was 100 to 1000 nM.

As to `COc1c(-c2ccc3c(c2)CC=C3CNS(C)(=O)=O)cc(-n2ccc(=O)[nH]c2=O)cc1C(C)(C)C` [IB-L0-2.13, N-((6-(3-tert-butyl-5-(2,4-dioxo-3,4-dihydropyrimidin-1(2H)-yl)-2-methoxyphenyl)-1H-inden-3-yl)methyl)methanesulfonamide], the results for the IC50 in test [1] and in test [2] were under 10 nM and 10 to 100 nM, respectively. Besides, the concentration giving a half-maximal response (EC50) was 10 to 100 nM in test [3] (Hepatitis C virus) and under 10 nM in test [4] (Hepatitis C virus).

As for `COCCS(=O)(=O)Nc1ccc(NC(=O)c2cc(N3CCC(=O)NC3=O)cc(C(C)(C)C)c2O)cc1` [IA-L3-1.8, 3-tert-butyl-5-(2,4-dioxotetrahydropyrimidin-1(2H)-yl)-2-hydroxy-N-(4-(2-methoxyethylsulfonamido)phenyl)benzamide], the IC50 in test [1] and in test [2] was 10 to 100 nM in each case. Besides, the EC50 was over 1000 nM in test [3] (Hepatitis C virus) and 100 to 1000 nM in test [4] (Hepatitis C virus).

`COc1c(C(=O)Nc2cc(CN(C(=O)OC(C)(C)C)S(C)(=O)=O)cs2)cc(N2CCC(=O)NC2=O)cc1C(C)(C)C` [IA-L3-1.96, tert-butyl (5-(3-tert-butyl-5-(2,4-dioxotetrahydropyrimidin-1(2H)-yl)-2-methoxybenzamido)thiophen-3-yl)methyl(methylsulfonyl)carbamate]: the IC50 in test [1] was 100 to 1000 nM; in test [2] it was over 1000 nM. Further, the 50% effective concentration (EC50) in test [3] (Hepatitis C virus) was 100 to 1000 nM; in test [4] (Hepatitis C virus) it was over 1000 nM.

As for `COc1c(-c2ccc3c(c2)CCC3NS(C)(=O)=O)cc(-n2ccc(=O)[nH]c2=O)cc1C(C)(C)C` (centres unmarked) [IB-L0-2.44, N-(5-(3-tert-butyl-5-(2,4-dioxo-3,4-dihydropyrimidin-1(2H)-yl)-2-methoxyphenyl)-2,3-dihydro-1H-inden-1-yl)methanesulfonamide], the IC50 in test [1] and in test [2] was 100 to 1000 nM in each case. Further, the EC50 in test [3] (Hepatitis C virus) and in test [4] (Hepatitis C virus) was over 1000 nM each time.

Take `CC(C)(C)c1cc(N2CCC(=O)NC2=O)cc(C(=O)Nc2cccc(CNS(C)(=O)=O)c2)c1O` [IA-L3-1.11, 3-tert-butyl-5-(2,4-dioxotetrahydropyrimidin-1(2H)-yl)-2-hydroxy-N-(3-(methylsulfon-amidomethyl)phenyl)benzamide]: the half-inhibitory concentration (IC50) in test [1] was over 1000 nM; in test [2] it was 100 to 1000 nM. The EC50 in test [3] (Hepatitis C virus) and in test [4] (Hepatitis C virus) was over 1000 nM throughout.

In the case of `CC(C)(C)c1cc(N2CCC(=O)NC2=O)cc(C(=O)Nc2scc(CNS(C)(=O)=O)c2S(N)(=O)=O)c1O` [IA-L3-1.89, 3-tert-butyl-5-(2,4-dioxotetrahydropyrimidin-1(2H)-yl)-2-hydroxy-N-(4-(methylsulfonamidomethyl)-3-sulfamoylthiophen-2-yl)benzamide], the half-inhibitory concentration (IC50) in test [1] and in test [2] was 10 to 100 nM in each case. Further, the EC50 was in the range of 100 to 1000 nM in test [3] (Hepatitis C virus) and 10 to 100 nM in test [4] (Hepatitis C virus).

On to `CC(C)(C)c1cc(N2CCC(=O)NC2=O)cc(C(=O)Nc2nccs2)c1O` [IA-L3-1.104, 3-tert-butyl-5-(2,4-dioxotetrahydropyrimidin-1(2H)-yl)-2-hydroxy-N-(thiazol-2-yl)benzamide], for which the half-inhibitory concentration (IC50) is over 1000 nM in test [1] and 100 to 1000 nM in test [2]. Further, the concentration for a half-maximal effect (EC50) in test [3] (Hepatitis C virus) and in test [4] (Hepatitis C virus) was over 1000 nM each time.

With `COc1c(C#Cc2ccc(NS(C)(=O)=O)c(C)c2)cc(N2CCC(=O)NC2=O)cc1C(C)(C)C` [IA-L2-1.10, N-(4-((3-tert-butyl-5-(2,4-dioxotetrahydropyrimidin-1(2H)-yl)-2-methoxyphenyl)ethynyl)-2-methylphenyl)methanesulfonamide], the IC50 in test [1] and in test [2] was 10 to 100 nM in each case. The figures for the EC50 in test [3] (Hepatitis C virus) and in test [4] (Hepatitis C virus) were 100 to 1000 nM and 10 to 100 nM, respectively.

As for `CCCC(=O)N(c1ccc(NC(=O)c2cc(N3CCC(=O)NC3=O)cc(C(C)(C)C)c2OC)cc1)S(C)(=O)=O` [IA-L3-1.71, 3-tert-butyl-5-(2,4-dioxotetrahydropyrimidin-1(2H)-yl)-2-methoxy-N-(4-(N-(methylsulfonyl)butyramido)phenyl)benzamide], the results for the half-maximal inhibitory concentration (IC50) in test [1] and in test [2] were 100 to 1000 nM and over 1000 nM, respectively. Further, the EC50 in test [3] (Hepatitis C virus) fell in the range of 100 to 1000 nM; in test [4] (Hepatitis C virus) it was 10 to 100 nM.

With `COc1c(/C=C\c2ccc(NS(C)(=O)=O)cc2)cc(N2CCC(=O)NC2=O)cc1C(C)(C)C` [IA-L1-1.20, (Z)—N-(4-(3-tert-butyl-5-(2,4-dioxotetrahydropyrimidin-1(2H)-yl)-2-methoxystyryl)phenyl)methanesulfonamide], the concentration for half-maximal inhibition (IC50) was under 10 nM in test [1] and 10 to 100 nM in test [2] (read-out: IC50 1b, HCV polymerase 1b). Besides, the EC50 in test [3] and in test [4] was 10 to 100 nM in each case.

As for `COc1c(C(=O)Nc2ccc(NS(=O)(=O)c3ccccc3)cc2)cc(N2CCC(=O)NC2=O)cc1C(C)(C)C` [IA-L3-1.60, 3-tert-butyl-5-(2,4-dioxotetrahydropyrimidin-1(2H)-yl)-2-methoxy-N-(4-(phenylsulfonamido)phenyl)benzamide], the IC50 in test [1] and in test [2] was 10 to 100 nM in each case. Moreover, the 50% effective concentration (EC50) in test [3] (Hepatitis C virus) lay in the range of 100 to 1000 nM; in test [4] (Hepatitis C virus) it was 10 to 100 nM.
